# Reference: patent publication US20260240915A1, “USE OF EXTRACELLULAR VESICLES FOR THE TREATMENT OF CANCER” (HENRY FORD HEALTH SYSTEM, priority 2023, published 2026)
# “Also recorded” adds a separate entry of the source.
# Key:
# [1] = tested on: primary liver cancer cells taken from patients; assay: Viability of primary liver cancer cells from HCC patients
# Description: Exosomes were tested against primary liver cancer cells taken from the patient's tumor as well as non-malignant, normal liver cells taken from a distant site in the explant liver away from the tumor. OGD-Exo were tested along with HCEC-m214-Exo and also with the chemotherapeutic agents, oxaliplatin and Sorafenib. […] OGD-Exo were used at a dose of 10^8 p/ml to avoid excessive killing with OGD-Exo alone. Exosomes were tested against patient 11 (Pt.011) and patient 12 (Pt.012).
# 3-(4,5-dimethylthiazol-2-yl)-2,5 diplenyltetrazolium bromide (MTT) assay: To measure cell viability, cells were seeded in 96-well plates at a density of 800 cells per well. Cells were cultured in medium with indicated treatment. After 5 days of treatment, medium was removed and MTT was added to each well with an additional 4 hr incubation to allow mitochondrial dehydrogenase to convert MTT into insoluble formazan crystals. The absorption of solubilized formazan was measured at a wavelength of 490 nm by an ELISA plate reader (EL340 microplate reader; Bio-Tek Instruments, Winooske, VT).
# [2] = tested on: hepatitis B-related HCC patients; details: treatment group, advanced stage patients; cited from earlier work
# [3] = tested on: Hep3B hepatocellular carcinoma cells; assay: MTT cell viability assay, Hep3B; type: cell-based; details: for effect of inhibitor alone on cancer viability: CPZ 2.5 to 10 μg/ml, nystatin 5 to 30 μM; for effect of inhibitor pretreatment on the anti-cancer effect of Hypo-Exo: pretreatment with endocytosis inhibitor, then Hypo-Exo
# Description: (§1) Based on preliminary research, we hypothesized that under duress, cells and cell lines might generate exosomes that are deleterious specifically to malignant cells and tissue. We also speculated that exosomes could be loaded with specific microRNA (mi-RNA) that might further enhance anti-cancer activity and specificity. We initiated studies with human cerebral endothelial cells (HCEC) because […], endothelial cells would be able to release exosomes directly into the systemic circulation where they could travel to cancer sites. The initial mechanism of cellular stress we chose for the HCEC cells was oxygen-glucose deprivation (OGD). HCEC cells were exposed to OGD deprivation for a period of four hours and then exosomes were harvested and purified (See methods). HCEC cells exposed to OGD deprivation for longer than four hours started to lose viability. The “4 h-OGD-exosomes” were then tested for their effect on the viability of hepatocellular cancer cell lines, HepG2 and Hep3B, and on the benign liver cell line, THLE-2. To assay the cell viability of target cells, we used the MTT (3-(4,5-Dimethylthiazol-2-yl)-2,5-diphenyltetrazolium bromide) assay (See Methods). All cancer lines used in all of the studies are outlined in Table 1.
# (§2) Cells were cultured in medium with indicated treatment.
# [4] = tested on: benign THLE-2 liver cell line; assay: MTT cell viability assay, THLE-2; type: cell-based; details: benign liver cells
# Description: as §1, §2
# [5] = tested on: HepG2 hepatocellular carcinoma cells; assay: MTT cell viability assay, HepG2; type: cell-based; details: for effect of inhibitor alone on cancer viability: CPZ 2.5 to 10 μg/ml, nystatin 5 to 30 μM
# Description: as §1, §2
# HCC patients = details: study of 600 patients; cited from earlier work
structure (smiles),measurement,setting,value
O=C1[O][Pt]2([NH][C@@H]3CCCC[C@H]3[NH]2)[O]C1=O [oxaliplatin],decrease in viability of primary liver cancer cells,"[1]; OGD-Exo 10^8 p/ml, oxaliplatin 0.06125 µM, Sorafenib 1.20 μM, Pt.011 and Pt.012",approximately 20%
CNC(=O)c1cc(Oc2ccc(NC(=O)Nc3ccc(Cl)c(C(F)(F)F)c3)cc2)ccn1 [Sorafenib],median overall survival,[2],6.5 months
same,viability at 0.8 µM,"[3]; Homo sapiens, Hep3B, Hypo-Exo 10^8 p/ml, Sorafenib 0.8 µM",80.5%
same,cytotoxicity at 1.2 µM,"[1]; Homo sapiens, read-out: decrease in viability of primary liver cancer cells",42 to 44%
same,effect on cell viability,[4],negligible impact
same,viability at 1.2 µM,"[5]; Homo sapiens, HepG2, Hypo-Exo 10^8 p/ml, Sorafenib 1.2 μM",67.4%
same,increase in survival,HCC patients,three
"CN(C)CCCN1c2ccccc2Sc2ccc(Cl)cc21 [CPZ, chlorpromazine]",effect of inhibitor alone on cancer viability,[3],did not affect cancer viability
same,effect of inhibitor pretreatment on the anti-cancer effect of Hypo-Exo,[3],significantly attenuated the anti-cancer effect of Hypo-Exo
same,effect of inhibitor alone on cancer viability,[5],did not affect cancer viability
same,effect of inhibitor pretreatment on the anti-cancer effect of Hypo-Exo,"[5]; pretreatment with endocytosis inhibitor, then Hypo-Exo",significantly attenuated the anti-cancer effect of Hypo-Exo; also recorded: blunt the anti-tumor effect of Hypo-Exo
C[C@@H]1[C@H](O)[C@@H](C)/C=C/C=C/CC/C=C/C=C/C=C/C=C/C(O[C@H]2O[C@H](C)[C@@H](O)[C@H](N)[C@@H]2O)CC2O[C@](O)(CC(O)C(O)CCC(O)CC(O)CC(O)CC(=O)O[C@H]1C)CC(O)C2C(=O)O (some centres unmarked) [nystatin],effect of inhibitor alone on cancer viability,[3],did not affect cancer viability
same,effect of inhibitor pretreatment on the anti-cancer effect of Hypo-Exo,[3],significantly diminished the anti-cancer effect of Hypo-Exo; also recorded: blunts the effect of Hypo-Exo
same,effect of inhibitor alone on cancer viability,[5],did not affect cancer viability
